In publication PMC9393241, “Design, Synthesis, and Activity Assays of Cyclin-Dependent Kinase 1 Inhibitors With Flavone Scaffolds” (Frontiers in Chemistry, 2022):

Legend:
CDK1/cyclin B1 = target: T1, CDK1/cyclin B1 (Homo sapiens, UniProt P06493); assay: In vitro anti-CDK1/cyclin B1 kinase assay (Kinase-Glo luminescence); type: biochemical; settings: for Selectivity: CDK1 compared with CDK4 (CDK4 IC50 / CDK1 IC50); for inhibition at 20 µM: test compounds at 20 μM, read-out: Inhibition rates (%) CDK1
T1 construct: purchased
Procedure: (§1) In vitro anti-CDK1/cyclin B1 and CDK4/cyclin D3 assays were performed as described by the manufacturer. All test compounds and controls were dissolved in dimethyl sulfoxide (DMSO) to prepare 50 μM stock solutions. The stock solutions were diluted by double-distilled water and buffer to 40, 30, 20, and 10 μM working concentrations and stored at −20°C. Buffer, ATP, CDK substrate […], and distilled water were mixed, and then 25 μl of the mixture was added to a 96-well plate. Five microliters of 20 μM test compounds were sequentially added. CDK1/cyclin B1 was diluted to 1 ng/μl, and CDK4/cyclin D3 was diluted to 10 ng/μl using a buffer. Twenty microliters of the kinase solutions were incubated with the test compounds at 30°C for 45 min for CDK1/cyclin B1 and for 60 min for CDK4/cyclin D3. Finally, 50 μl of Kinase-Glo Max reagent was added to each well. The 96-well plate was covered with aluminum foil and incubated at room temperature for 15 min. Luminescence of the test compounds was measured with a microplate reader.

CDK4/cyclin D3 = target: T2, CDK4/cyclin D3 (Homo sapiens, UniProt P11802); assay: In vitro anti-CDK4/cyclin D3 kinase assay (Kinase-Glo luminescence); type: biochemical; settings: for inhibition at 20 µM: test compounds at 20 μM, read-out: Inhibition rates (%) CDK4
T2 construct: purchased
Procedure: as §1

MCF-7 tumor cell = system: MCF-7 tumor cell; set-up: method as in Mou et al., 2021a; settings: concentration of 50 μg/ml; ref Mou et al., 2021a; cited from earlier work
MCF-7 cells = assay: Cell growth inhibition assay (CCK-8), MCF-7; type: cell-based; settings: Homo sapiens, MCF7, 24 h
Procedure: (§2) All test compounds and controls were dissolved in DMSO to prepare 250 μM stock solutions. The stock solutions were filtered through a […] and diluted into five concentrations (0.1–250 μM) with DMEM medium. MCF-7 and RAW264.7 cells were inoculated at a concentration of 5,000 cells/100 μl/well into a 96-well plate for 24 h at 37°C in a humidified atmosphere containing 5% CO2. After 24 h of culture, the primary medium was discarded and replaced with 100 μl of fresh DMEM medium containing different concentrations of test compounds in triplicate. After another 24 h of culture, the medium was replaced with 100 μl of fresh DMEM medium containing 10% (v/v) CCK-8 reagent in each well for 2 h at 37°C. The OD value was measured at a wavelength of 450 nm. Cell viability was determined using the following equation: Cell viability=(ODsample-ODnegative control/ODpositive control-ODnegative control)×100% where OD positive control is the absorbance at 450 nm obtained from untreated cells. OD negative control is the absorbance obtained from a blank well containing the cell culture medium and CCK-8 reagent. The IC50 values were calculated from the plot of activity vs. inhibitor concentration by using the GraphPad Prism 5 software ([Yu et al., 2020]).

RAW264.7 cells = assay: Cell growth inhibition assay (CCK-8), RAW264.7; type: cell-based; settings: Mus musculus, 24 h
Procedure: as §2

T2 sequence (P11802 whole entry): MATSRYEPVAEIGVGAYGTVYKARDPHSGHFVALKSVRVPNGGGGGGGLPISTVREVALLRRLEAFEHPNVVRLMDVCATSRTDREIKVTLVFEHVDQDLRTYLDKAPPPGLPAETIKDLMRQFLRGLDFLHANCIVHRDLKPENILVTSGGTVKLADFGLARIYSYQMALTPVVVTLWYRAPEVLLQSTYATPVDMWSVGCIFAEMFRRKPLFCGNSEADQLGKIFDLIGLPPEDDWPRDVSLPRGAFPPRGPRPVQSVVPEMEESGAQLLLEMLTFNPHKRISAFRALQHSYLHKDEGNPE
T2 sequence (P30281 whole entry partner): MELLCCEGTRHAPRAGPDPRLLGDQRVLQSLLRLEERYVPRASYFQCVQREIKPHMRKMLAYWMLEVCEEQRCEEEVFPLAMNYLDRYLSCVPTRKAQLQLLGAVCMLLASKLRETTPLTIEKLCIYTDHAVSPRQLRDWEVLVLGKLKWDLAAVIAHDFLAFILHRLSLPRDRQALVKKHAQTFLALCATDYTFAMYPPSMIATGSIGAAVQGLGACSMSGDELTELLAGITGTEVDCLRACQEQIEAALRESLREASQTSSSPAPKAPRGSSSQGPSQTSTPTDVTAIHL
T1 sequence (P06493 whole entry): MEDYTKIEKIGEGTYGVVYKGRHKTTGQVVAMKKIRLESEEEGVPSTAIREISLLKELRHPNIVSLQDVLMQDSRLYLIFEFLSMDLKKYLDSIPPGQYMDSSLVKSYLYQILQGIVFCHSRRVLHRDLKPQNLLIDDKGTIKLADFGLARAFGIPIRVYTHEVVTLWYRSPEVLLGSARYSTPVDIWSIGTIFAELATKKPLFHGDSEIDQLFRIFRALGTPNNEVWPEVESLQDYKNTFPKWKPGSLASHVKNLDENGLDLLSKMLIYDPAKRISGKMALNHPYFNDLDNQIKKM
T1 sequence (P14635 whole entry partner): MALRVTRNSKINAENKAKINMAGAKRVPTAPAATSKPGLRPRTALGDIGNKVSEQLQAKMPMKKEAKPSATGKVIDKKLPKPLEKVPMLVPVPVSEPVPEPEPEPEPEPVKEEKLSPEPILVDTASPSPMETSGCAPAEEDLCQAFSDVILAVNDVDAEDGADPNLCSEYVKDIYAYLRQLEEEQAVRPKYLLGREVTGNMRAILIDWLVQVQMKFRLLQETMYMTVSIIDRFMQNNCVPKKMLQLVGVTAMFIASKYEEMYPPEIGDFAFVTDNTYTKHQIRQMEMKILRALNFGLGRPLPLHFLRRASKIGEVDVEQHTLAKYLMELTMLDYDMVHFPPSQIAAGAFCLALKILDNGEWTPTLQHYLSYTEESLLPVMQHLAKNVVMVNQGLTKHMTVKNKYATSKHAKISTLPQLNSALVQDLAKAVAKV

IC50 (CDK1/cyclin B1) | Selectivity (CDK1/cyclin B1) | inhibition at 20 µM (CDK1/cyclin B1) | IC50 (CDK4/cyclin D3) | inhibition at 20 µM (CDK4/cyclin D3) | IC50 (MCF-7 cells) | melting point | SMILES | inhibition rate against MCF-7 tumor cell proliferation (MCF-7 tumor cell) | IC50 (RAW264.7 cells)
36.4 ± 1.12 µM |  | 33.05 ± 0.12% |  |  | 79.7 ± 1.81 µM | 213.8 to 214.3 °C | O=c1cc(-c2ccccc2)oc2c(CN3CCOCC3)c3c(c(O)c12)OCCCCO3 [Compound 2a, 12-Hydroxy-7-(morpholinomethyl)-9-phenyl-2,3,4,5-tetrahydro-[1,4]dioxocino[2,3-g]chromen-11-one] | 96.7% | 2.54 ± 0.12 µM
 |  | 27.19 ± 0.07% |  | 10.18 ± 0.08% |  | 202.3 to 203.6 °C | O=c1cc(-c2ccccc2)oc2c(CN3CCSCC3)c3c(c(O)c12)OCCCCO3 [Compound 2b, 12-Hydroxy-9-phenyl-7-(thiomorpholinomethyl)-2,3,4,5-tetrahydro-[1,4]dioxocino[2,3-g]chromen-11-one] |  | 
 |  | 29.4 ± 0.09% |  | 10.96 ± 0.09% |  | 208.5 to 210.6 °C | CN(C)Cc1c2c(c(O)c3c(=O)cc(-c4ccccc4)oc13)OCCCCO2 [Compound 2c, 7-((Dimethylamino)methyl)-12-hydroxy-9-phenyl-2,3,4,5-tetrahydro-[1,4]dioxocino[2,3-g]chromen-11-one] |  | 
42.2 ± 1.62 µM | 12.88 | 38.11 ± 0.09% | 543.8 ± 4.83 µM | 2.73 ± 0.06% |  | 218.3 to 219.8 °C | O=c1cc(-c2ccccc2)oc2c(CN3CCOCC3)c(OCc3ccccc3)c(O)c(O)c12 [Compound 3a, 7-(Benzyloxy)-5,6-dihydroxy-8-(morpholinomethyl)-2-phenyl-4H-chromen-4-one] |  | 
 |  | 29 ± 0.12% |  | 7.22 ± 0.08% |  | 194.9 to 196.6 °C | O=c1cc(-c2ccccc2)oc2c(CN3CCCC3)c(O)c(CN3CCCC3)c(O)c12 [Compound 5a, 5,7-Dihydroxy-2-phenyl-6,8-bis(pyrrolidin-1-ylmethyl)-4H-chromen-4-one] |  | 
39.6 ± 1.43 µM | 12.85 | 38.34 ± 0.08% | 508 ± 5.56 µM | 8.15 ± 0.06% | 76.9 ± 1.47 µM | 199.2 to 199.6 °C | O=c1cc(-c2ccccc2)oc2c(CN3CCOCC3)c(O)c(CN3CCOCC3)c(O)c12 [Compound 5c, 5,7-Dihydroxy-6,8-bis(morpholinomethyl)-2-phenyl-4H-chromen-4-one] |  | 59.4 ± 1.23 µM
51.4 ± 1.68 µM | 4.45 | 35.95 ± 0.09% | 229 ± 4.55 µM | 6.3 ± 0.07% |  | 192.9 to 193 °C | O=c1cc(-c2ccccc2)oc2c(CN3CCCC3)c(O)cc(O)c12 [Compound 6a, 5,7-Dihydroxy-2-phenyl-8-(pyrrolidin-1-ylmethyl)-4H-chromen-4-one] |  | 
 |  | 34.47 ± 0.12% |  | 9.36 ± 0.09% |  | 217.6 to 219.5 °C | O=c1cc(-c2ccccc2)oc2c(CN3CCOCC3)c(O)cc(O)c12 [Compound 6b, 5,7-Dihydroxy-8-(morpholinomethyl)-2-phenyl-4H-chromen-4-one] |  | 
 |  | 34.19 ± 0.1% |  | 9.87 ± 0.09% |  | 218.3 to 219.5 °C | O=c1cc(-c2ccccc2)oc2c(CN3CCSCC3)c(O)cc(O)c12 [Compound 6c, 5,7-Dihydroxy-2-phenyl-8-(thiomorpholinomethyl)-4H-chromen-4-one] |  | 
 |  | 31.24 ± 0.08% |  | 7.46 ± 0.06% |  | 241.9 to 242.3 °C | CN(C)Cc1c(O)cc(O)c2c(=O)cc(-c3ccccc3)oc12 [Compound 6d, 8-((Dimethylamino)methyl)-5,7-dihydroxy-2-phenyl-4H-chromen-4-one] |  | 
 |  | 26.36 ± 0.09% |  | 5.43 ± 0.06% |  | 172.3 to 173.4 °C | COc1ccc(-c2cc(=O)c3c(O)c(CN4CCN(C)CC4)c(O)cc3o2)cc1 [Compound 9a, 5,7-Dihydroxy-2-(4-methoxyphenyl)-6-((4-methylpiperazin-1-yl)methyl)-4H-chromen-4-one] |  | 
 |  | 30.69 ± 0.1% |  | 8.55 ± 0.09% |  | 180.6 to 181.3 °C | CCCN(CCC)Cc1c(O)cc2oc(-c3ccc(OC)cc3)cc(=O)c2c1O [Compound 9b, 6-((Dipropylamino)methyl)-5,7-dihydroxy-2-(4-methoxyphenyl)-4H-chromen-4-one] |  | 
 |  | 24.07 ± 0.1% |  | 4.68 ± 0.07% |  | 207.1 to 207.3 °C | COc1ccc(-c2cc(=O)c3c(O)c(CN4CCCC4)c(O)c(CN4CCCC4)c3o2)cc1 [Compound 10a, 5,7-Dihydroxy-2-(4-methoxyphenyl)-6,8-bis(pyrrolidin-1-ylmethyl)-4H-chromen-4-one] |  | 
 |  | 29.54 ± 0.11% |  |  |  | 214.2 to 215.5 °C | COc1ccc(-c2cc(=O)c3c(O)c(CN4CCSCC4)c(O)c(CN4CCSCC4)c3o2)cc1 [Compound 10b, 5,7-Dihydroxy-2-(4-methoxyphenyl)-6,8-bis(thiomorpholinomethyl)-4H-chromen-4-one] |  | 
 |  | 27.7 ± 0.12% |  | 8.57 ± 0.09% |  | 161.8 to 161.9 °C | COc1ccc(-c2cc(=O)c3c(O)c(CN4CCN(C)CC4)c(O)c(CN4CCN(C)CC4)c3o2)cc1 [Compound 10c, 5,7-Dihydroxy-2-(4-methoxyphenyl)-6,8-bis((4-methylpiperazin-1-yl)methyl)-4H-chromen-4-one] |  | 
 |  | 35.53 ± 0.08% |  | 2.73 ± 0.08% |  | 191.6 to 193.7 °C | COc1ccc(-c2cc(=O)c3c(O)c(CN(C)C)c(O)c(CN(C)C)c3o2)cc1 [Compound 10d, 6,8-Bis((dimethylamino)methyl)-5,7-dihydroxy-2-(4-methoxyphenyl)-4H-chromen-4-one] |  | 
 |  | 26.12 ± 0.1% |  |  |  | 211 to 213.4 °C | COc1ccc(-c2cc(=O)c3c(O)cc(O)c(CN4CCSCC4)c3o2)cc1 [Compound 11a, 5,7-Bihydroxy-2-(4-methoxyphenyl)-8-(thiomorpholinomethyl)-4H-chromen-4-one] |  | 
 |  | 32.38 ± 0.11% |  | 6 ± 0.04% |  | 181.6 to 182.7 °C | COc1ccc(-c2cc(=O)c3c(O)cc(OCc4ccccc4)cc3o2)cc1 [Compound 12a, 7-(Benzyloxy)-5-hydroxy-2-(4-methoxyphenyl)-4H-chromen-4-one] |  | 
43.6 ± 1.53 µM |  | 37.6 ± 0.12% |  | 1.43 ± 0.06% | 131 ± 2.35 µM | 175.2 to 175.7 °C | COc1ccc(-c2cc(=O)c3c(O)cc(OCCBr)cc3o2)cc1 [Compound 12c, 7-(2-Bromoethoxy)-5-hydroxy-2-(4-methoxyphenyl)-4H-chromen-4-one] |  | 68.4 ± 0.99 µM
 |  | 86.79 ± 0.04% |  | 89.71 ± 0.03% | 294 ± 3.13 µM |  | CN1CC[C@H](c2c(O)cc(O)c3c(=O)cc(-c4ccccc4Cl)oc23)[C@H](O)C1 [flavopiridol, reference compound] | 90.0% | 0.55 ± 0.05 µM

SMILES | IC50 (CDK1/cyclin B1) | Selectivity (CDK1/cyclin B1) | inhibition at 20 µM (CDK1/cyclin B1) | IC50 (CDK4/cyclin D3) | inhibition at 20 µM (CDK4/cyclin D3) | IC50 (MCF-7 cells) | melting point | inhibition rate against MCF-7 tumor cell proliferation (MCF-7 tumor cell) | IC50 (RAW264.7 cells)
CCn1cnc2c(Nc3cccc(Cl)c3)nc(NC3CCCCC3N)nc21 (stereo not drawn) [CGP74514 A, reference compound] | 10.9 ± 0.89 µM | 3.28 | 62.5 ± 0.05% | 35.6 ± 1.02 µM | 48.52 ± 0.04% |  |  | 96.7% | 
CCCN(CCC)Cc1c(OCCCCBr)c(O)c(O)c2c(=O)cc(-c3ccccc3)oc12 [Compound 3b, 7-(4-Bromobutoxy)-8-((dipropylamino)methyl)-5,6-dihydroxy-2-phenyl-4H-chromen-4-one] |  |  | 25.33 ± 0.11% |  | 6.01 ± 0.07% |  | 216.2 to 221.8 °C |  | 
O=c1cc(-c2ccccc2)oc2cc(OCCCCBr)cc(O)c12 [Compound 7d, 7-(4-Bromobutoxy)-5-hydroxy-2-phenyl-4H-chromen-4-one] |  |  | 19.74 ± 0.11% |  | 1.83 ± 0.06% |  | 162.6 to 163.6 °C |  | 
COc1ccc(-c2cc(=O)c3c(O)cc(OCCCCBr)cc3o2)cc1 [Compound 12d, 7-(4-Bromobutoxy)-5-hydroxy-2-(4-methoxyphenyl)-4H-chromen-4-one] | 51.4 ± 1.56 µM |  | 36.91 ± 0.08% |  | 3.47 ± 0.04% |  | 178.9 to 179.8 °C |  | 
